Source: PubChem BioAssay AID330 (DTP/NCI, 2004)
Where “and” joins values, the source holds several entries; their conditions need not be identical. Identical values can stand only once. Toxic doses and inconclusive results are not listed. Numbered stars: 1 amine (or outer) side, 2 acyl side, 3 side chain; on linkers, the order of the positions; unused ones are H or OH. Bridge positions count the residues as written; N and C are the ends. Square brackets hold non-standard residues; d marks the D form. Peptide text beside a SMILES is read from it. I, II: the chains in the order shown. * marks the point of attachment. ξ: configuration not given here. Quinaldoyl(3-OH,6-OMe) = COc1ccc2nc(C(=O)*)c(O)cc2c1; X8 = CC(=O)OC1CC=NN([*:1])C1C(=O)[*:2]; ξNMeVal(3-OH) = CNC(C(=O)O)C(C)(C)O; X20 = O=C(C1CCCNN1[*:1])[*:2]; Sar = CNCC(=O)O

Test system: P388 leukemia ip, CD2F1 mice, survival T/C
Experiment: NCI In Vivo Anticancer Drug Screen. Data for tumor model P388 Leukemia (intraperitoneal) in CD2F1 (CDF1) mice
Conditions: endpoint: median survival time, higher = longer survival
Summary of the method: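 Mice carrying the transplanted tumor received test compound or vehicle. Survival was recorded in each group, and the value is the treated-group measurement divided by that of the vehicle-treated control group.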

[1] = dose: 12.5 mg/kg/injection, schedule: Q01DX009 (ip), vehicle: Klucel (hydroxypropylcellulose) (HPC)
[2] = dose: 50.0 mg/kg/injection, schedule: Q01DX009 (ip), vehicle: Klucel (hydroxypropylcellulose) (HPC)
[3] = dose: 25.0 mg/kg/injection, schedule: Q01DX009 (ip), vehicle: saline with Tween-80
[4] = dose: 100.0 mg/kg/injection, schedule: Q01DX009 (ip), vehicle: Klucel (hydroxypropylcellulose) (HPC)
[5] = dose: 60.0 mg/kg/injection, schedule: Q01DX005 (ip), vehicle: saline with Tween-80
[6] = dose: 120.0 mg/kg/injection, schedule: Q01DX005 (ip), vehicle: saline with Tween-80
[7] = dose: 240.0 mg/kg/injection, schedule: Q01DX005 (ip), vehicle: saline with Tween-80
[8] = dose: 50.0 mg/kg/injection, schedule: Q01DX005 (ip), vehicle: saline with Tween-80
[9] = dose: 100.0 mg/kg/injection, schedule: Q01DX005 (ip), vehicle: saline with Tween-80
[10] = dose: 200.0 mg/kg/injection, schedule: Q01DX005 (ip), vehicle: saline with Tween-80
[11] = dose: 100.0 mg/kg/injection, schedule: Q04DX003 (ip), vehicle: Klucel (hydroxypropylcellulose) (HPC)
[12] = dose: 200.0 mg/kg/injection, schedule: Q04DX003 (ip), vehicle: Klucel (hydroxypropylcellulose) (HPC)
[13] = dose: 25.0 mg/kg/injection, schedule: Q04DX003 (ip), vehicle: Klucel (hydroxypropylcellulose) (HPC)
[14] = dose: 50.0 mg/kg/injection, schedule: Q04DX003 (ip), vehicle: Klucel (hydroxypropylcellulose) (HPC)
[15] = dose: 100.0 mg/kg/injection, schedule: Q04DX002 (ip), vehicle: saline with Tween-80
[16] = dose: 200.0 mg/kg/injection, schedule: Q04DX002 (ip), vehicle: saline with Tween-80
[17] = dose: 400.0 mg/kg/injection, schedule: Q04DX002 (ip), vehicle: saline with Tween-80
[18] = dose: 25.0 mg/kg/injection, schedule: Q01DX005 (ip), vehicle: saline with Tween-80

CN1CC2CC3=C(CCC45CC6C(C=C34)C63CCC4(CC67CCC8C9(C)CCCC8%10C(C6CC4CC7%10)N(C)C9)OC53)C(C)(C2)C1 (stereo unspecified)
T/C [1]: 93 % of control
T/C (dose: 25.0 mg/kg/injection, schedule: Q01DX009 (ip), vehicle: Klucel (hydroxypropylcellulose) (HPC)): 103 % of control
T/C [2]: 111 % of control

O=C(/C=C/c1ccccc1O)/C=C/c1ccccc1O
T/C (dose: 8.0 mg/kg/injection, schedule: Q01DX009 (ip), vehicle: saline with Tween-80): 118 % of control
T/C (dose: 12.0 mg/kg/injection, schedule: Q01DX009 (ip), vehicle: saline with Tween-80): 118 % of control
T/C (dose: 18.0 mg/kg/injection, schedule: Q01DX009 (ip), vehicle: saline with Tween-80): 113 % of control
T/C [3]: 115 % of control

O=C1OC2=C(CCCc3ccccc32)C(N(c2ccccc2)c2ccccc2)C1(Cl)Cl (stereo unspecified)
T/C [2]: 96 % of control
T/C [4]: 88 % of control
T/C (dose: 200.0 mg/kg/injection, schedule: Q01DX009 (ip), vehicle: Klucel (hydroxypropylcellulose) (HPC)): 89 % of control

C=C(C)CCCCOCOCCOC
T/C [5]: 99 % of control
T/C [6]: 99 % of control
T/C [7]: 97 % of control

CN(C)c1c(-c2ccc(Cl)cc2)cc(-c2ccccc2)[nH]c1=O
T/C (dose: 1.56 mg/kg/injection, schedule: Q01DX009 (ip), vehicle: Klucel (hydroxypropylcellulose) (HPC)): 101 % of control
T/C (dose: 3.13 mg/kg/injection, schedule: Q01DX009 (ip), vehicle: Klucel (hydroxypropylcellulose) (HPC)): 101 % of control
T/C (dose: 6.25 mg/kg/injection, schedule: Q01DX009 (ip), vehicle: Klucel (hydroxypropylcellulose) (HPC)): 100 % of control
T/C [1]: 99 % of control and 89 % of control
T/C [2]: 101 % of control
T/C [4]: 106 % of control

CC(=O)Oc1c(C)[nH]ccc1=O
T/C (dose: 25.0 mg/kg/injection, schedule: Q01DX009 (ip), vehicle: saline): 103 % of control and 104 % of control
T/C (dose: 50.0 mg/kg/injection, schedule: Q01DX009 (ip), vehicle: saline): 107 % of control and 112 % of control and 116 % of control
T/C (dose: 100.0 mg/kg/injection, schedule: Q01DX009 (ip), vehicle: saline): 116 % of control
T/C (dose: 200.0 mg/kg/injection, schedule: Q01DX009 (ip), vehicle: saline): 154 % of control
T/C (dose: 400.0 mg/kg/injection, schedule: Q01DX009 (ip), vehicle: saline): 152 % of control and 161 % of control and 179 % of control
T/C (dose: 800.0 mg/kg/injection, schedule: Q01DX009 (ip), vehicle: saline): 180 % of control

O=C1CCCc2c1ccc1ccccc21
T/C [8]: 100 % of control
T/C [9]: 101 % of control
T/C [10]: 98 % of control

Cn1cc(/C=C/[N+](=O)[O-])c2ccc(OCc3ccccc3)cc21
T/C [11]: 105 % of control
T/C [12]: 95 % of control
T/C (dose: 400.0 mg/kg/injection, schedule: Q04DX003 (ip), vehicle: Klucel (hydroxypropylcellulose) (HPC)): 97 % of control

COc1ccc2nc(C(=O)NC3COC(=O)C(C(C)(C)O)N(C)C(=O)CN(C)C(=O)CNC(=O)C4CCCNN4C(=O)C(NC(=O)c4nc5ccc(OC)cc5cc4O)COC(=O)C(C(C)(C)O)N(C)C(=O)CN(C)C(=O)CNC(=O)C4C(OC(C)=O)CC=NN4C3=O)c(O)cc2c1 (stereo unspecified) (I: {Quinaldoyl(3-OH,6-OMe)}-S[X8]G[Sar][ξNMeVal(3-OH)] / II: {Quinaldoyl(3-OH,6-OMe)}-S[X20]G[Sar][ξNMeVal(3-OH)]; ester I:1-II:C, I:C-II:1; configuration not given here)
T/C (dose: 20.0 micrograms/kg/injection, schedule: Q01DX005 (ip), vehicle: DMSO): 97 % of control
T/C (dose: 40.0 micrograms/kg/injection, schedule: Q01DX005 (ip), vehicle: DMSO): 87 % of control

COC(=O)c1cn(NS(=O)(=O)c2ccc(OC)cc2)cc1C(=O)OC
T/C [5]: 96 % of control
T/C [6]: 101 % of control
T/C [7]: 104 % of control

CC(C)C(/C=C/c1ccccc1)=N\NS(=O)(=O)c1ccccc1
T/C (dose: 100.0 mg/kg/injection, schedule: Q01DX001 (ip), vehicle: saline with Tween-80): 105 % of control
T/C (dose: 200.0 mg/kg/injection, schedule: Q01DX001 (ip), vehicle: saline with Tween-80): 98 % of control
T/C (dose: 400.0 mg/kg/injection, schedule: Q01DX001 (ip), vehicle: saline with Tween-80): 96 % of control

COc1cccc(/C=C/C(C)=N/NC(N)=O)c1
T/C (dose: 30.0 mg/kg/injection, schedule: Q01DX005 (ip), vehicle: Klucel (hydroxypropylcellulose) (HPC)): 100 % of control
T/C (dose: 60.0 mg/kg/injection, schedule: Q01DX005 (ip), vehicle: Klucel (hydroxypropylcellulose) (HPC)): 101 % of control
T/C (dose: 120.0 mg/kg/injection, schedule: Q01DX005 (ip), vehicle: Klucel (hydroxypropylcellulose) (HPC)): 100 % of control
T/C (dose: 240.0 mg/kg/injection, schedule: Q01DX005 (ip), vehicle: Klucel (hydroxypropylcellulose) (HPC)): 95 % of control

CCOP(=O)(O)C1CCCC(C)[N-]1.CCOP(=O)(O)C1CCCC(C)[N-]1.[Fe+2] (stereo unspecified)
T/C [13]: 101 % of control
T/C [14]: 95 % of control
T/C [11]: 100 % of control and 89 % of control

[Co+2].[O-]c1ccccc1/C=N/Nc1ccccn1.[O-]c1ccccc1/C=N/Nc1ccccn1
T/C [15]: 91 % of control
T/C [16]: 90 % of control
T/C [17]: 95 % of control

COC1C(O[C@@H]2c3c(cc4c(c3O)C(=O)c3c(O)cccc3C4=O)C(=O)C(C)(O)C2OC)OC(C)C(O)C1O (stereo partly specified)
T/C (dose: 6.25 mg/kg/injection, schedule: Q04DX003 (ip), vehicle: Klucel (hydroxypropylcellulose) (HPC)): 102 % of control
T/C (dose: 12.5 mg/kg/injection, schedule: Q04DX003 (ip), vehicle: Klucel (hydroxypropylcellulose) (HPC)): 101 % of control
T/C [13]: 106 % of control
T/C [14]: 101 % of control and 104 % of control
T/C [11]: 104 % of control
T/C [12]: 121 % of control

O=C(O)C1(Cc2ccc(O)c(O)c2)NCCS1 (stereo unspecified)
T/C (dose: 100.0 mg/kg/injection, schedule: Q01DX001 (ip), vehicle: Klucel (hydroxypropylcellulose) (HPC)): 104 % of control
T/C (dose: 200.0 mg/kg/injection, schedule: Q01DX001 (ip), vehicle: Klucel (hydroxypropylcellulose) (HPC)): 100 % of control

COC(=O)C(CCCN=C(N)N[N+](=O)[O-])NC(=O)c1ccc2c(c1O)C(=O)c1ccccc1C2=O (stereo unspecified)
T/C [15]: 96 % of control
T/C [16]: 92 % of control
T/C [17]: 92 % of control

CC1(C)c2ccccc2-c2nc3ccccc3cc2C1(Br)Br
T/C [8]: 105 % of control
T/C [9]: 110 % of control
T/C [10]: 120 % of control

CCCCN(CCCC)CC(O)c1c(Br)c2ccccc2c2ccccc12 (stereo unspecified)
T/C (dose: 12.5 mg/kg/injection, schedule: Q01DX009 (ip), vehicle: saline with Tween-80): 107 % of control
T/C [3]: 109 % of control
T/C (dose: 50.0 mg/kg/injection, schedule: Q01DX009 (ip), vehicle: saline with Tween-80): 124 % of control

Cn1c(C(F)(F)F)nc2nc(Cl)c(Cl)nc21
T/C [18]: 108 % of control
T/C [8]: 106 % of control
T/C [9]: 101 % of control and 106 % of control
T/C [10]: 99 % of control and 103 % of control
T/C (dose: 400.0 mg/kg/injection, schedule: Q01DX005 (ip), vehicle: saline with Tween-80): 101 % of control

FC(F)(F)c1ccc2nc(Cl)[nH]c2c1
T/C [8]: 98 % of control
T/C [9]: 98 % of control

CC(=O)c1cc2c(cc1O)OC(C)(C)C=C2
T/C (dose: 25.0 mg/kg/injection, schedule: Q01DX005 (ip), vehicle: Klucel (hydroxypropylcellulose) (HPC)): 101 % of control
T/C (dose: 50.0 mg/kg/injection, schedule: Q01DX005 (ip), vehicle: Klucel (hydroxypropylcellulose) (HPC)): 99 % of control
T/C (dose: 100.0 mg/kg/injection, schedule: Q01DX005 (ip), vehicle: Klucel (hydroxypropylcellulose) (HPC)): 91 % of control
T/C (dose: 200.0 mg/kg/injection, schedule: Q01DX005 (ip), vehicle: Klucel (hydroxypropylcellulose) (HPC)): 92 % of control

COc1cc(CC2COC(=O)C2(O)Cc2ccc(O)c(OC)c2)ccc1O (stereo unspecified)
T/C [8]: 98 % of control
T/C [9]: 95 % of control
T/C [10]: 100 % of control

C=CC(C)(C)C(O)C=C(C)C (stereo unspecified)
T/C [15]: 99 % of control
T/C [16]: 100 % of control
T/C [17]: 101 % of control

O=C(NCCCCCCCCCCNC(=O)C12CC3CC(CC(C3)C1)C2)C12CC3CC(CC(C3)C1)C2
T/C (dose: 12.5 mg/kg/injection, schedule: Q01DX005 (ip), vehicle: saline with Tween-80): 98 % of control
T/C [18]: 96 % of control
T/C [8]: 86 % of control and 91 % of control
